≈ marks a conversion by molar mass, not a printed value.
Legend:
[1] = target: T1, Poly [ADP-ribose] polymerase tankyrase-2 (Homo sapiens, UniProt Q9H2K2)
T1 sequence (Q9H2K2 whole entry): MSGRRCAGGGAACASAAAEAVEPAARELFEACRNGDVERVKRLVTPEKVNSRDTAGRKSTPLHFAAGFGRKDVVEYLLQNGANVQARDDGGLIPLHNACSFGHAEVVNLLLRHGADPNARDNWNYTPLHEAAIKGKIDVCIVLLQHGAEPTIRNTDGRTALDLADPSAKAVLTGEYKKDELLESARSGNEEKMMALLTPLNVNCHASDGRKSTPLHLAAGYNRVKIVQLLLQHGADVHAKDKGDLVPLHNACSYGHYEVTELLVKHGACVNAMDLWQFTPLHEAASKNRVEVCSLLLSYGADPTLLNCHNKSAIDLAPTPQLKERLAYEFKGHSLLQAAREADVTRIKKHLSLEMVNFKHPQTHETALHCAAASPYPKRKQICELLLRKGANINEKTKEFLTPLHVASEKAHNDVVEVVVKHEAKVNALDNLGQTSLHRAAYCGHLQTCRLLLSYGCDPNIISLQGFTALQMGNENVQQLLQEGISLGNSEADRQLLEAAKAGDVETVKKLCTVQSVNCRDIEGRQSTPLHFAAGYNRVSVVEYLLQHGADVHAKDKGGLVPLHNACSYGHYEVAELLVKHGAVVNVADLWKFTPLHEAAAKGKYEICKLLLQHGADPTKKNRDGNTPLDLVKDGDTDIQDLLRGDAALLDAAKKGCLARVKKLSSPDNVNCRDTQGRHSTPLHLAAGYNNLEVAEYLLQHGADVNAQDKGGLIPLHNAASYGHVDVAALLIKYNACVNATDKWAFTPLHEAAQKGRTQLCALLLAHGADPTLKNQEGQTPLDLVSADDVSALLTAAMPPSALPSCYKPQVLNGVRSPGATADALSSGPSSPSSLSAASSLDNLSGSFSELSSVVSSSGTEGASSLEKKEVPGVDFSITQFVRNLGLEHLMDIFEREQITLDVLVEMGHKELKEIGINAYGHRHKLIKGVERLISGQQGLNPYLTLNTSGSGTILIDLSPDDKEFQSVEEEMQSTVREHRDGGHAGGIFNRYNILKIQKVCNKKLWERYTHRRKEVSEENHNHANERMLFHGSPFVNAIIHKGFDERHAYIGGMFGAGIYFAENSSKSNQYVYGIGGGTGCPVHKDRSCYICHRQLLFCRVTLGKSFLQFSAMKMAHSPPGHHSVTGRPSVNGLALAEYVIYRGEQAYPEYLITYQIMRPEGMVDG
Description: Inhibition of recombinant human N-terminal TEV cleavage site-fused/FLAG-poly his-tagged TNKS2 SAM-PARP domain (613 to 1166 residues) expressed in Escherichia coli assessed as reduction in auto-PARylation preincubated for 10 mins followed by biotinylated-NAD+ addition and measured after 45 mins by ELISA

physchem = conditions: phosphate buffer, pH 7.4
[2] = target: T2, Poly [ADP-ribose] polymerase tankyrase-1 (Homo sapiens, UniProt O95271)
T2 sequence (O95271 whole entry): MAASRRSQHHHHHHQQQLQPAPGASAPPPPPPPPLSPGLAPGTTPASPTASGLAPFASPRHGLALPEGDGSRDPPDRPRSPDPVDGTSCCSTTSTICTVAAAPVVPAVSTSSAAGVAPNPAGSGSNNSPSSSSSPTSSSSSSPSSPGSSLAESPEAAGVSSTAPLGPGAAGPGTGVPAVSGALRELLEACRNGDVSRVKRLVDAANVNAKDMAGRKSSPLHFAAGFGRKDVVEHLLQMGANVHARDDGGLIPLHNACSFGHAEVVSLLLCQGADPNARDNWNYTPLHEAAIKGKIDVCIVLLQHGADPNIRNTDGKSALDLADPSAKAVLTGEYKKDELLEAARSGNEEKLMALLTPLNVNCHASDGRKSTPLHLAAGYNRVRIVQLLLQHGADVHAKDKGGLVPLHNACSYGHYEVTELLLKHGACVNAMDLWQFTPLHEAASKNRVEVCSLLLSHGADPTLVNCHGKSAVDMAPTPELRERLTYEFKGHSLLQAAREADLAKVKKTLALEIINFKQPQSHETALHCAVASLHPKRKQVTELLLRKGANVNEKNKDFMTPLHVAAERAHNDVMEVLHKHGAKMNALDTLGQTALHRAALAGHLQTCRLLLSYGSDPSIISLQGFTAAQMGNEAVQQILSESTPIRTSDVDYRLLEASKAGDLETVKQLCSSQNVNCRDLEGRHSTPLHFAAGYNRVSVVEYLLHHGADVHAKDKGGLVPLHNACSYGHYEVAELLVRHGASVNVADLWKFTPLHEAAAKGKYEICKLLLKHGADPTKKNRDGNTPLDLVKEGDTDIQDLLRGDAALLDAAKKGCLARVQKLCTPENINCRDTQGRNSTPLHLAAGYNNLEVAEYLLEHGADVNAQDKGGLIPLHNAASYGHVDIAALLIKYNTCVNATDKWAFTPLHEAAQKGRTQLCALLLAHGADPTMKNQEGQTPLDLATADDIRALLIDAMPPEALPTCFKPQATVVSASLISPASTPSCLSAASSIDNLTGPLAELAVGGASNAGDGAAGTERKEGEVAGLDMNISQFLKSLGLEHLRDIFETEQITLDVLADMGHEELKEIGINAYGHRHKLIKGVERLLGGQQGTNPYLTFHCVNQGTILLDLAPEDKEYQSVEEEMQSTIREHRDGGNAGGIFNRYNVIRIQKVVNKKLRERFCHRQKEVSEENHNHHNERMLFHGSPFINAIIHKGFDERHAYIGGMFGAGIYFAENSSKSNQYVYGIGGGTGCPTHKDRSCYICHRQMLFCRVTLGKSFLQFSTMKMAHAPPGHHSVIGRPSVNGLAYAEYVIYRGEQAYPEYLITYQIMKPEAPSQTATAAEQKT
Description: Inhibition of recombinant human N-terminal TEV cleavage site-fused/FLAG-poly his-tagged TNKS SAM-PARP domain (1024 to 1327 residues) expressed in Escherichia coli assessed as reduction in auto-PARylation preincubated for 10 mins followed by biotinylated-NAD+ addition and measured after 45 mins by ELISA

COLO 320DM = assay: cells; conditions: Homo sapiens, 96 h
Description: Antiproliferative activity against human COLO320DM cells assessed as inhibition of cell growth measured after 4 days by CellTiter-Glo assay

Tankyrase 1/2 = target: T3, Tankyrase 1/2 (Homo sapiens, UniProt Q9H2K2+O95271)
T3 sequence (Q9H2K2 whole entry): T1 sequence (Q9H2K2 whole entry)
T3 sequence (O95271 whole entry): T2 sequence (O95271 whole entry)
Description: Inhibition of TNKS/TNKS2 (unknown origin) expressed in human DLD1 cells assessed as reduction in Wnt-signaling measured after 24 hrs by TCF-luciferase reporter gene assay

[3] = target: Poly [ADP-ribose] polymerase 1 (Homo sapiens, UniProt P09874)
Chain of Poly [ADP-ribose] polymerase 1 (P09874 whole entry): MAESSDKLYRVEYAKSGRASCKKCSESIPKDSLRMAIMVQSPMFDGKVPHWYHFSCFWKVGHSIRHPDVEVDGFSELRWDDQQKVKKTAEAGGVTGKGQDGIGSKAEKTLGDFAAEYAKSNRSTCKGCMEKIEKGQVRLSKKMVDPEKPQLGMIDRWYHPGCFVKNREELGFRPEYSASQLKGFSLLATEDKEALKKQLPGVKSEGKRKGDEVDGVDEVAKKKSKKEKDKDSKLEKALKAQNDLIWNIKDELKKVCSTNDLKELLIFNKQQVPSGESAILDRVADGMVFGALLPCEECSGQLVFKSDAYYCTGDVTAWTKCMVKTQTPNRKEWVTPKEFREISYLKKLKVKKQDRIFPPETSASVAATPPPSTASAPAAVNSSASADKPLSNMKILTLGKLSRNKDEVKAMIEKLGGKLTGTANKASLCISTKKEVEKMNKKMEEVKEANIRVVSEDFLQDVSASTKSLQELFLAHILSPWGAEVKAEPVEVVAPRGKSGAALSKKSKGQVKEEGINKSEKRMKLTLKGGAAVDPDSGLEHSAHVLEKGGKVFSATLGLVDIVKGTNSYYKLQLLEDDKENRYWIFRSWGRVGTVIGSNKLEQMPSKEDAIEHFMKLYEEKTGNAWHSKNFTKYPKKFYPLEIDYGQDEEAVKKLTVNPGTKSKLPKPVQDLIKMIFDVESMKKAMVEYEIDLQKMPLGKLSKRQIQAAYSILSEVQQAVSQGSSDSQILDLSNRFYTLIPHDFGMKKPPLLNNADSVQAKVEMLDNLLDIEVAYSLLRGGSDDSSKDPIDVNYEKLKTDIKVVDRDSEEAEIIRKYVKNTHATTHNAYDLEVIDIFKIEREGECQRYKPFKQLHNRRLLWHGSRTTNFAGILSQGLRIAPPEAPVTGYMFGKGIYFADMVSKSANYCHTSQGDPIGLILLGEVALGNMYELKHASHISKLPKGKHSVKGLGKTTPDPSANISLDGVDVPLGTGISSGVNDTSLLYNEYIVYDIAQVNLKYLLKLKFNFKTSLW
Description: Inhibition of recombinant human PARP1 expressed in Escherichia coli assessed as reduction in auto-PARylation using histone as substrate measured after 45 mins in presence of biotinylated-NAD+ by ELISA

| SMILES | IC50 [1] [nM] | solubility at 1 h, 200 µM (physchem) [µg/mL] | IC50 [2] [nM] | GI50 (COLO 320DM) [nM] | IC50 (Tankyrase 1/2) [nM] | IC50 [3] [nM] |
| --- | --- | --- | --- | --- | --- | --- |
| O=C1Nc2cccc(F)c2C12CCN(c1nc3c(c(=O)[nH]1)CCCC3)CC2 | 4.7 | 3.1 (≈ 8.41 µM) | 5.8 | 2300 | 31.1 | – |
| COc1cccc(N2CCN(c3nc4c(c(=O)[nH]3)CSCC4)CC2)c1 | 4.8 | 1.7 (≈ 4.74 µM) | 6.2 | 7400 | 148 | > 20000 |
| COc1ccccc1N1CCN(c2nc3c(c(=O)[nH]2)CC(C)(C)CC3)CC1 | > 20000 | 2.4 (≈ 6.51 µM) | > 20000 | – | > 10000 | – |
| O=c1[nH]c(N2CCC3(CC2)CNc2cccc(Br)c23)nc2c1CCCC2 | 15.6 | 8.9 (≈ 21.4 µM) | 16 | 10400 | 454 | – |
| COc1ccccc1N1CCN(c2nc3c(c(=O)[nH]2)C[S+]([O-])CC3)CC1 (stereo unspecified) | 5340 | 8.8 (≈ 23.5 µM) | 6170 | > 20000 | > 10000 | > 20000 |
| O=c1[nH]c(N2CCC3(CC2)CNc2cc(Cl)ccc23)nc2c1CCCC2 | 5.8 | 9.2 (≈ 24.8 µM) | 8.4 | 6900 | 818 | – |
| O=C1NC2(CCN(c3nc4c(c(=O)[nH]3)CCCC4)CC2)c2ccccc21 | 258 | 70.1 (≈ 200 µM) | 514 | 97700 | > 10000 | > 20000 |
| COc1ccccc1N1CCN(c2nc3c(c(=O)[nH]2)CN(C)CC3)CC1 | > 20000 | 69.7 (≈ 196 µM) | > 20000 | – | > 10000 | – |
| O=c1[nH]c(N2CCC3(CC2)CNc2cc(Cl)cc(Cl)c23)nc2c1CCCC2 | 10.4 | 11 (≈ 27.1 µM) | 7.5 | 7500 | 609 | – |
| COc1ccc(N2CCN(c3nc4c(c(=O)[nH]3)COCC4)CC2)cc1 | 148 | 6 (≈ 17.5 µM) | 220 | > 20000 | 2246 | > 20000 |
| O=C1Nc2cc(Cl)cc(Cl)c2C12CCN(c1nc3c(c(=O)[nH]1)CCCC3)CC2 | 7.1 | 15.7 (≈ 37.4 µM) | 5.3 | 21400 | 533 | – |
| COc1ccccc1N1CCN(c2nc3c(c(=O)[nH]2)CC(C)CC3)CC1 (stereo unspecified) | 3480 | 1.8 (≈ 5.08 µM) | 1350 | – | 7282 | – |
| O=c1[nH]c(N2CCC3(CC2)CNc2cccc(Cl)c23)nc2c1CCCC2 | 5.3 | 2.6 (≈ 7.01 µM) | 6.4 | 4900 | 247 | – |
| N#Cc1cccc2c1C1(CCN(c3nc4c(c(=O)[nH]3)CCCC4)CC1)C(=O)N2 | 26.8 | 5.3 (≈ 14.1 µM) | 16.8 | 20400 | 496 | – |
| O=c1[nH]c(N2CCC3(CC2)CNc2cc(F)ccc23)nc2c1CCCC2 | 7.6 | 3.2 (≈ 9.03 µM) | 16.7 | 10300 | 657 | – |

The remaining lines, values ahead:

| IC50 [1] [nM] | solubility at 1 h, 200 µM (physchem) [µg/mL] | IC50 [2] [nM] | GI50 (COLO 320DM) [nM] | IC50 (Tankyrase 1/2) [nM] | IC50 [3] [nM] | SMILES |
| --- | --- | --- | --- | --- | --- | --- |
| 2.6 | 0.9 (≈ 2.51 µM) | 3.4 | > 50000 | 114 | > 20000 | COc1ccc(N2CCN(c3nc4c(c(=O)[nH]3)CSCC4)CC2)cc1 |
| 65.5 | 0.8 (≈ 2.13 µM) | 19.4 | 15500 | 403 | > 20000 | COc1ccccc1N1CCN(c2nc3c(c(=O)[nH]2)CC(F)(F)CC3)CC1 |
| 6980 | 66.4 (≈ 194 µM) | 7780 | – | > 10000 | – | COc1ccccc1N1CCN(c2nc3c(c(=O)[nH]2)CNCC3)CC1 |
| 4.9 | 2.8 (≈ 7.28 µM) | 10.2 | 5000 | 21.5 | – | O=C1Nc2cccc(Cl)c2C12CCN(c1nc3c(c(=O)[nH]1)CCCC3)CC2 |
| – | – | – | – | > 10000 | – | COc1ccccc1N1CCN(C2=NC3CCCCCC3C(=O)N2)CC1 (stereo unspecified) |
| 18.5 | 69.2 (≈ 191 µM) | 9.9 | 23600 | 799 | – | N#Cc1cccc2c1C1(CCN(c3nc4c(c(=O)[nH]3)CCCC4)CC1)CN2 |
| 6420 | – | 14300 | 19600 | 5401 | – | COc1ccccc1N1CCC(c2nc3c(c(=O)[nH]2)CCCC3)CC1 |
| 14.4 | 1.8 (≈ 4.68 µM) | 11.1 | 19900 | 623 | – | O=C1Nc2cc(Cl)ccc2C12CCN(c1nc3c(c(=O)[nH]1)CCCC3)CC2 |
| 7.5 | 0.8 (≈ 2.07 µM) | 6.4 | 4200 | 43.9 | – | O=C1Nc2cc(F)cc(F)c2C12CCN(c1nc3c(c(=O)[nH]1)CCCC3)CC2 |
| – | 69.6 (≈ 196 µM) | 6010 | 41900 | 9144 | > 20000 | COc1ccccc1N1CCCN(c2nc3c(c(=O)[nH]2)CCCC3)CC1 |
| 13.4 | 1.9 (≈ 4.43 µM) | 5.8 | 8800 | 91.2 | – | O=C1Nc2cccc(Br)c2C12CCN(c1nc3c(c(=O)[nH]1)CCCC3)CC2 |
| 12 | 62.9 (≈ 171 µM) | 11 | 15000 | 369 | – | O=C1Nc2cc(F)ccc2C12CCN(c1nc3c(c(=O)[nH]1)CCCC3)CC2 |
| 58.9 | 4.9 (≈ 15.8 µM) | 135 | – | 1536 | – | Oc1nc(N2CCN(c3ccccc3)CC2)nc2c1CCCC2 |
| 3.3 | 6.3 (≈ 16.9 µM) | 5.4 | 5200 | 110 | – | O=c1[nH]c(N2CCC3(CC2)CNc2cc(F)cc(F)c23)nc2c1CCCC2 |
| 2.8 | 4.2 (≈ 11.9 µM) | 4.4 | 3300 | 72.4 | – | O=c1[nH]c(N2CCC3(CC2)CNc2cccc(F)c23)nc2c1CCCC2 |
